Data published in US11014929B2, “Pyrazolopyrimidine compounds and uses thereof” (Incyte Corporation, priority 2016, dated 2021).

Target: HPK1 (Homo sapiens (Human), UniProt Q92918)
Experiment: HPK1 Kinase Binding Assay
Conditions: LanthaScreen tracer 222 binding, active HPK1, one hour incubation at 25° C.
Protocol: A stock solution of 1 mM test compound was prepared in DMSO. The compound plate was prepared by 3-fold and 11-point serial dilutions. 0.1 μL of the compound in DMSO was transferred from the compound plate to the white 384 well polystyrene plates. The assay buffer contained 50 mM HEPES, pH 7.5, 0.01% Tween-20, 5 mM MgCl2, 0.01% BSA, and 5 mM DTT. 5 μl of 4 nM active HPK1 (SignalChem M23-11G) prepared in the buffer was added to the plate. The enzyme concentration given was based on the given stock concentration reported by the vender. 5 μl of 18 nM tracer 222 (ThermoFisher PV6121) and 4 nM LanthaScreen Eu-Anti GST antibody (ThermoFisher PV5595) were added. After one hour incubation at 25° C., the plates were read on a PHERAstar FS plate reader (BMG Labtech). Ki values were determined.

HPK1, sequence (Q92918 1-346): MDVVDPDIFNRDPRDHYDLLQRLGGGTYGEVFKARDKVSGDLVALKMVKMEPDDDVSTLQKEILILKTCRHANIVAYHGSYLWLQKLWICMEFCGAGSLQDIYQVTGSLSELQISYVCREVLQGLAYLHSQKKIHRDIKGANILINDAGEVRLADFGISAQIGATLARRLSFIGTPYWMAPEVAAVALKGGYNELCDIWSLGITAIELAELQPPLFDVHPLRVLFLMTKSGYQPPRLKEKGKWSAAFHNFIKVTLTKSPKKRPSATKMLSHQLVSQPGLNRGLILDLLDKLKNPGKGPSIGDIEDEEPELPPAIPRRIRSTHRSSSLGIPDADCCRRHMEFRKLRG

Row | SMILES | Ki [nM]
1 | CNCc1cc(C)c(-c2ncc3[nH]nc(-c4ccc(N5CCN(C)CC5)cc4)c3n2)cn1 [Example 104, N-Methyl-1-(4-methyl-5-(3-(4-(4-methylpiperazin-1-yl)phenyl)-1H-pyrazolo[4,3-d]pyrimidin-5-yl)pyridin-2-yl)methanamine] | ≤ 100
2 | Cc1cncc(-c2ncc3[nH]nc(-c4ccc(N5CCN(C)CC5)cc4)c3n2)c1 [Example 6, 3-(4-(4-Methylpiperazin-1-yl)phenyl)-5-(5-methylpyridin-3-yl)-1H-pyrazolo[4,3-d]pyrimidine] | ≤ 100
3 | COc1cccc(F)c1-c1ncc2[nH]nc(-c3ccc(C(=O)N4CCOCC4)cc3)c2n1 [Example 31, (4-(5-(2-Fluoro-6-methoxyphenyl)-1H-pyrazolo[4,3-d]pyrimidin-3-yl)phenyl)(morpholino)methanone] | ≤ 100
4 | CNC(=O)c1cccc(-c2ncc3[nH]nc(-c4ccc(N5CCN(C)CC5)cc4)c3n2)c1F [Example 47, 2-Fluoro-N-methyl-3-(3-(4-(4-methylpiperazin-1-yl)phenyl)-1H-pyrazolo[4,3-d]pyrimidin-5-yl)benzamide] | 100 to 500
5 | COc1ccccc1-c1ncc2[nH]nc(-c3ccc(N4CCN(C)CC4)cc3)c2n1 [Example 3, 5-(2-Methoxyphenyl)-3-(4-(4-methylpiperazin-1-yl)phenyl)-1H-pyrazolo[4,3-d]pyrimidine] | ≤ 100
6 | Cc1c2c(cc(F)c1-c1ncc3[nH]nc(-c4ccc(N5CCOCC5)nc4)c3n1)CCNC2 [Example 109, 4-(5-(5-(6-Fluoro-8-methyl-1,2,3,4-tetrahydroisoquinolin-7-yl)-1H-pyrazolo[4,3-d]pyrimidin-3-yl)pyridin-2-yl)morpholine] | ≤ 100
7 | CN1CCN(c2ccc(-c3n[nH]c4cnc(-c5cncc(C(=O)N6CCOCC6)c5)nc34)cc2)CC1 [Example 8, (5-(3-(4-(4-Methylpiperazin-1-yl)phenyl)-1H-pyrazolo[4,3-d]pyrimidin-5-yl)pyridin-3-yl)(morpholino)methanone] | ≤ 100
8 | CN1CCN(c2ccc(-c3n[nH]c4cnc(-c5ccc6cccnc6c5F)nc34)cc2)CC1 [Example 101, 8-Fluoro-7-(3-(4-(4-methylpiperazin-1-yl)phenyl)-1H-pyrazolo[4,3-d]pyrimidin-5-yl)quinoline] | ≤ 100
9 | O=S(=O)(c1ccc(-c2n[nH]c3cnc(-c4c(F)cc5c(c4F)CNCC5)nc23)cc1)N1CCC1 [Example 96, 7-(3-(4-(Azetidin-1-ylsulfonyl)phenyl)-1H-pyrazolo[4,3-d]pyrimidin-5-yl)-6,8-difluoro-1,2,3,4-tetrahydroisoquinoline] | ≤ 100
10 | COc1cccc(F)c1-c1ncc2[nH]nc(-c3ccc(C(=O)NC4CCCC4)cc3)c2n1 [Example 32, N-Cyclopentyl-4-(5-(2-fluoro-6-methoxyphenyl)-1H-pyrazolo[4,3-d]pyrimidin-3-yl)benzamide] | ≤ 100
11 | CNC(=O)c1cncc(-c2ncc3[nH]nc(-c4ccc(N5CCN(C)CC5)cc4)c3n2)c1 [Example 9, N-Methyl-5-(3-(4-(4-methylpiperazin-1-yl)phenyl)-1H-pyrazolo[4,3-d]pyrimidin-5-yl)nicotinamide] | ≤ 100
12 | Cc1c2c(cc(F)c1-c1ncc3[nH]nc(-c4ccnc(N5CCN(C)CC5)c4)c3n1)CCNC2 [Example 107, 6-Fluoro-8-methyl-7-(3-(2-(4-methylpiperazin-1-yl)pyridin-4-yl)-1H-pyrazolo[4,3-d]pyrimidin-5-yl)-1,2,3,4-tetrahydroisoquinoline] | ≤ 100
13 | CNCc1cc(F)c(-c2ncc3[nH]nc(-c4ccnc(N5CCOCC5)c4F)c3n2)c(F)c1 [Example 69, 1-(3,5-Difluoro-4-(3-(3-fluoro-2-morpholinopyridin-4-yl)-1H-pyrazolo[4,3-d]pyrimidin-5-yl)phenyl)-N-methylmethanamine] | ≤ 100
14 | CCN1CCN(c2ccc(-c3n[nH]c4cnc(-c5c(C)cc(C6CCCCN6)cc5F)nc34)cc2)CC1 (stereo not drawn) [Example 125, 3-(4-(4-Ethylpiperazin-1-yl)phenyl)-5-(2-fluoro-6-methyl-4-(piperidin-2-yl)phenyl)-1H-pyrazolo[4,3-d]pyrimidine] | ≤ 100
15 | CN(C)c1ncc(-c2n[nH]c3cnc(-c4c(F)cc5c(c4F)CNCC5)nc23)cn1 [Example 93, 5-(5-(6,8-Difluoro-1,2,3,4-tetrahydroisoquinolin-7-yl)-1H-pyrazolo[4,3-d]pyrimidin-3-yl)-N,N-dimethylpyrimidin-2-amine] | ≤ 100
16 | COc1cccc(F)c1-c1ncc2[nH]nc(-c3ccc(N4CCCCC4)cc3)c2n1 [Example 40, 5-(2-Fluoro-6-methoxyphenyl)-3-(4-(piperidin-1-yl)phenyl)-1H-pyrazolo[4,3-d]pyrimidine] | ≤ 100
17 | CNC1CCc2c1cc(F)c(-c1ncc3[nH]nc(-c4ccc(N5CCOCC5)nc4)c3n1)c2F (stereo not drawn) [Example 113, 4,6-Difluoro-N-methyl-5-(3-(6-morpholinopyridin-3-yl)-1H-pyrazolo[4,3-d]pyrimidin-5-yl)-2,3-dihydro-1H-inden-1-amine] | ≤ 100
18 | CS(=O)(=O)NCc1ccc(-c2n[nH]c3cnc(-c4c(F)cc5c(c4F)CNCC5)nc23)cc1 [Example 95, N-(4-(5-(6,8-Difluoro-1,2,3,4-tetrahydroisoquinolin-7-yl)-1H-pyrazolo[4,3-d]pyrimidin-3-yl)benzyl)methanesulfonamide] | ≤ 100

The remaining lines, values ahead:

Row | Ki [nM] | SMILES
19 | ≤ 100 | COc1cccc(F)c1-c1ncc2[nH]nc(-c3ccnc(N4CCNCC4)c3)c2n1 [Example 50, 5-(2-Fluoro-6-methoxyphenyl)-3-(2-(piperazin-1-yl)pyridin-4-yl)-1H-pyrazolo[4,3-d]pyrimidine]
20 | ≤ 100 | CCN1CCN(c2ccc(-c3n[nH]c4cnc(-c5c(F)cc(CNC)cc5C(F)(F)F)nc34)cc2)CC1 [Example 124, 1-(4-(3-(4-(4-Ethylpiperazin-1-yl)phenyl)-1H-pyrazolo[4,3-d]pyrimidin-5-yl)-3-fluoro-5-(trifluoromethyl)phenyl)-N-methylmethanamine]
21 | ≤ 100 | COc1cccc(F)c1-c1ncc2[nH]nc(-c3ccccc3)c2n1 [Example 12, 5-(2-Fluoro-6-methoxyphenyl)-3-phenyl-1H-pyrazolo[4,3-d]pyrimidine]
22 | ≤ 100 | CNC(C)c1cc(F)c(-c2ncc3[nH]nc(-c4cnn(C)c4)c3n2)c(F)c1 (stereo not drawn) [Example 85, 1-(3,5-Difluoro-4-(3-(1-methyl-1H-pyrazol-4-yl)-1H-pyrazolo[4,3-d]pyrimidin-5-yl)phenyl)-N-methylethanamine]
23 | ≤ 100 | COc1cccc(F)c1-c1ncc2[nH]nc(-c3cccc(CN4CCN(C)CC4)c3)c2n1 [Example 25, 5-(2-Fluoro-6-methoxyphenyl)-3-(3-((4-methylpiperazin-1-yl)methyl)phenyl)-1H-pyrazolo[4,3-d]pyrimidine]
24 | ≤ 100 | Cn1cc(-c2n[nH]c3cnc(-c4c(F)cc(NC(=O)CN5CCCC5)cc4F)nc23)cn1 [Example 82, N-(3,5-Difluoro-4-(3-(1-methyl-1H-pyrazol-4-yl)-1H-pyrazolo[4,3-d]pyrimidin-5-yl)phenyl)-2-(pyrrolidin-1-yl)acetamide]
25 | ≤ 100 | COc1ccc(-c2n[nH]c3cnc(-c4c(F)cccc4OC)nc23)cc1 [Example 35, 5-(2-Fluoro-6-methoxyphenyl)-3-(4-methoxyphenyl)-1H-pyrazolo[4,3-d]pyrimidine]
26 | ≤ 100 | COc1cccc(F)c1-c1ncc2[nH]nc(-c3ccc(F)cc3)c2n1 [Example 36, 5-(2-Fluoro-6-methoxyphenyl)-3-(4-fluorophenyl)-1H-pyrazolo[4,3-d]pyrimidine]
27 | ≤ 100 | CNCc1cc(F)c(-c2ncc3[nH]nc(-c4ccc(N5CCN(C(C)=O)CC5)nc4)c3n2)c(C(F)(F)F)c1 [Example 77, 1-(4-(5-(5-(2-Fluoro-4-((methylamino)methyl)-6-(trifluoromethyl)phenyl)-1H-pyrazolo[4,3-d]pyrimidin-3-yl)pyridin-2-yl)piperazin-1-yl)ethanone]
28 | ≤ 100 | COc1cccc(F)c1-c1ncc2[nH]nc(-c3ccc(C4CC4)cc3)c2n1 [Example 39, 3-(4-Cyclopropylphenyl)-5-(2-fluoro-6-methoxyphenyl)-1H-pyrazolo[4,3-d]pyrimidine]
29 | ≤ 100 | CCNCc1cc(F)c(-c2ncc3[nH]nc(-c4cnn(C)c4)c3n2)c(OC)c1 [Example 87, N-(3-Fluoro-5-methoxy-4-(3-(1-methyl-1H-pyrazol-4-yl)-1H-pyrazolo[4,3-d]pyrimidin-5-yl)benzyl)ethanamine]
30 | ≤ 100 | COc1cccc(F)c1-c1ncc2[nH]nc(-c3ccc(C(C)(C)C#N)cc3)c2n1 [Example 42, 2-(4-(5-(2-Fluoro-6-methoxyphenyl)-1H-pyrazolo[4,3-d]pyrimidin-3-yl)phenyl)-2-methylpropanenitrile]
31 | ≤ 100 | CCN(C)C(=O)N1CCN(c2ccc(-c3n[nH]c4cnc(-c5c(F)cc(CNC)cc5F)nc34)cn2)CC1 [Example 75, 4-(5-(5-(2,6-Difluoro-4-((methylamino)methyl)phenyl)-1H-pyrazolo[4,3-d]pyrimidin-3-yl)pyridin-2-yl)-N-ethyl-N-methylpiperazine-1-carboxamide]
32 | ≤ 100 | CNCc1cc(F)c(-c2ncc3[nH]nc(-c4ccc(N5CCN(CCO)CC5)cc4)c3n2)c(F)c1 [Example 73, 2-(4-(4-(5-(2,6-Difluoro-4-((methylamino)methyl)phenyl)-1H-pyrazolo[4,3-d]pyrimidin-3-yl)phenyl)piperazin-1-yl)ethanol]
33 | ≤ 100 | COc1cccc(F)c1-c1ncc2[nH]nc(-c3ccc(N4CCN(C(C)=O)CC4)nc3)c2n1 [Example 54, 1-(4-(5-(5-(2-Fluoro-6-methoxyphenyl)-1H-pyrazolo[4,3-d]pyrimidin-3-yl)pyridin-2-yl)piperazin-1-yl)ethan-1-one]
